The values that follow come from ChEMBL document CHEMBL1150287.

A word on the inhibition: it is how much of the control response was suppressed. Read a high inhibition as a response far below the control.

SMILES strings stand for the structures.

The assay concerns the target Sodium-dependent serotonin transporter (Homo sapiens) (UniProt P31645). The following applies: COS-7, at 100 nM.
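Also: measures inhibition of [3H]5-hydroxytryptamine uptake through human SERT expressed in COS-7 cells.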

Sodium-dependent serotonin transporter (Homo sapiens), sequence (P31645 whole entry, looked up): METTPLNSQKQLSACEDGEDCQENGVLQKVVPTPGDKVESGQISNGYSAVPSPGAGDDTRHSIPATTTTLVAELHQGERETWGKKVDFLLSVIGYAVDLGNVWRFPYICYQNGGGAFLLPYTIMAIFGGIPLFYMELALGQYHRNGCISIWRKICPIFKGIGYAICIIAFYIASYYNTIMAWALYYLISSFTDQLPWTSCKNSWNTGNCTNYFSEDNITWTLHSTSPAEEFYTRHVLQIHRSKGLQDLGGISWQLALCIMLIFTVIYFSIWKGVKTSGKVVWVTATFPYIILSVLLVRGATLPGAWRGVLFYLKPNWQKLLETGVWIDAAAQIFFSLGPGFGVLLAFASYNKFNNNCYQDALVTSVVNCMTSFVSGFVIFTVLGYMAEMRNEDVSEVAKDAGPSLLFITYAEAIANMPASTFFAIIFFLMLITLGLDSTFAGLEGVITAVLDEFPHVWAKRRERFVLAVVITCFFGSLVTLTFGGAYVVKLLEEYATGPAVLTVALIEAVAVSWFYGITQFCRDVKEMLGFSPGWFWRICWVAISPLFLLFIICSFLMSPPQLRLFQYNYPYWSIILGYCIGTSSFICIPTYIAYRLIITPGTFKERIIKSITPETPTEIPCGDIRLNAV
Description: Inhibition of [3H]5-hydroxytryptamine reuptake at human SERT expressed in african green monkey COS7 cells at 100 nM

In turn, `CN(C)CCCC1(c2ccccc2)OC(C)(C)c2cc(C#N)ccc21` (stereo unspecified) showed an inhibition of 0.69%.

Regarding `CNCCCC1(c2ccc(F)cc2)OCc2ccccc21` (stereo unspecified), the inhibition was 20.8%.

`CN(C)CCCC1(c2ccc(F)cc2)OCc2ccccc21` (stereo unspecified): the inhibition was 26.6%.

Compound `CNCCCC1(c2ccccc2)OCc2cc(C#N)ccc21` (stereo unspecified) registered an inhibition of 53.9%.

`CN(C)CCCC1(c2ccc(F)cc2)OC(C)(C)c2ccccc21` (stereo unspecified) yielded an inhibition of 0.71%.

For `CN(C)CCCC1(c2ccccc2)OCc2cc(C#N)ccc21` (stereo unspecified), the inhibition was 27.4%.

`CNCCCC1(c2ccc(F)cc2)OC(C)(C)c2cc(C#N)ccc21` (stereo unspecified): the inhibition was 6.56%.

In the case of `CNCCCC1(c2ccccc2)OC(C)(C)c2cc(C#N)ccc21` (stereo unspecified), the inhibition was found to be 7.23%.

For `CN(C)CCCC1(c2ccccc2)OCc2ccccc21` (stereo unspecified), the inhibition was found to be 8.66%.

`CNCCCC1(c2ccccc2)OC(C)(C)c2ccccc21` (stereo unspecified): the inhibition is 1.65%.

The compound `CNCCC(Oc1ccccc1OC)c1ccccc1` (stereo unspecified) registered an inhibition of 12.8%.

The compound `CNCCCC1(c2ccc(F)cc2)OCc2cc(C#N)ccc21` (stereo unspecified) returned an inhibition of 55.5%.

With `CN(C)CCCC1(c2ccccc2)OC(C)(C)c2ccccc21` (stereo unspecified), the inhibition was found to be 0.31%.

For the compound `CN(C)CCCC1(c2ccc(F)cc2)OC(C)(C)c2cc(C#N)ccc21` (stereo unspecified), the inhibition is 0.74%.

Take `CNCCCC1(c2ccc(F)cc2)OC(C)(C)c2ccccc21` (stereo unspecified): the inhibition amounted to 3.89%.

Regarding `CNCCCC1(c2ccccc2)OCc2ccccc21` (stereo unspecified), the inhibition turned out to be 9.76%.
